Assay results: patent US20240239802A1, “CRYSTAL FORM OF PYRROLOPYRIMIDINE COMPOUND AND PREPARATION METHOD FOR CRYSTAL FORM” (ZHEJIANG LONGCHARM BIO-TECH PHARMA. CO., LTD., priority 2021, published 2024)
Values belong to the compound of their own block, whether it stands above or below them.

Assays:
[1] = Pharmacokinetics (intravenous) in CD-1 mice; assay type: in vivo; details: for AUCu: AUCu = AUC0-inf × Unbound PPB (Mouse)
Description: The compound of formula (I) and the reference example were mixed with vehicle 0.10 mg/mL in 10% NMP/60% PEG400/30% H2O, vortexed and sonicated to prepare a 0.1 mg/mL clear solution. Select CD-1 male mice aged 7 to 10 weeks and administer the candidate compound solution intravenously at a dose of 0.21 mg/kg.
The whole blood was collected for a certain period of time to prepare plasma, and the drug concentration was analyzed by LC-MS/MS method. Pharmacokinetic parameters were calculated by Phoenix WinNonlin software (Pharsight, USA).

[2] = system: human B-cell lymphoma OCI-LY10 cells; assay: OCI-LY10 SCID mouse subcutaneous xenograft tumor model; assay type: in vivo, SCID mice; details: for T/C / TGI: Day 20; for Tumor volume (Day 0) / Tumor volume (Day 20): Mean ± SEM
Description: OCI-LY10SCID mouse xenograft tumor model:
Experimental Method: Subcutaneous Xenograft Tumor Model in Mice with Human B-Cell Lymphoma
Tumor cells in the logarithmic growth phase were collected and resuspended in IMDM basal medium. Matrigel was added to adjust the concentration of cells to 4×10^7/Ml. Under sterile conditions, SCID mice were inoculate with cell suspension subcutaneously on the right back at a concentration of 4×10^6/0.1 mL/mouse. When the animal tumor reached about 131.55-227.87 mm^3, the tumor-bearing mice were divided into 5 groups according to the size of the tumor volume, with 8 […] in each group. On the day of the experiment, the animals were given corresponding drugs according to the groups.
During the experiment, the body weight and tumor size of the animals were measured 3 times a week, and the clinical symptoms of the animals were observed and recorded every day, and each administration was referred to the last weighed animal body weight.
The length (a) and width (b) of the tumor were measured with a digital vernier caliper, and tumor volume (Tumor volume, TV) was calculated according to the formula below: […]

[3] = Pharmacokinetics (intravenous) in SD rats; assay type: in vivo; details: for AUCu: 0.51 / 0.49 mg/kg, AUCu = AUC0-inf × Unbound PPB (Rat in vivo test PPB)
Description: (§1) The compound of formula (I) and the reference example were mixed with vehicle 0.10 mg/mL in 10% NMP/60% PEG400/30% H2O, vortexed and sonicated to prepare a 0.5 mg/mL clear solution. SD rats aged 7 to 10 weeks were selected and given the candidate compound solution intravenously. Whole blood was collected for a certain period of time to prepare plasma, and the drug concentration was analyzed by LC-MS/MS. Pharmacokinetic parameters were calculated with Phoenix WinNonlin software (Pharsight, USA).

[4] = Pharmacokinetics (oral) in SD rats; assay type: in vivo; details: for AUCu: 1.9 / 1.8 mg/kg, AUCu = AUC0-inf × Unbound PPB (Rat in vivo test PPB)
Description: The compound of formula (I) and the reference example were mixed with vehicle 10% NMP/60% PEG400/30% H2O, vortexed and sonicated to prepare a 2 mg/mL clear solution. SD rats aged 7 to 10 weeks were selected, and the candidate compound solution was administered orally.
Whole blood was collected for a certain period of time to prepare plasma, and the drug concentration was analyzed by LC-MS/MS method, and the pharmacokinetic parameters were calculated by Phoenix WinNonlin software (Pharsight, USA).

[5] = Unbound PPB (Rat in vivo test PPB); assay type: in vitro ADME
Unbound PPB (Mouse) = assay type: in vitro ADME
[6] = Pharmacokinetics (oral administration) in CD-1 mice; assay type: in vivo; details: for AUCu: AUCu = AUC0-inf × Unbound PPB (Mouse)
Description: as §1, with “vehicle” for “vehicle 0.10 mg/mL in”, “0.6” for “0.5”, “Male CD-1 mice” for “SD rats”, “selected,” for “selected”, “and” for “and given”, “was administered orally by gavage at a dose of 3.1 mg/kg.” for “intravenously.”

[7] = Solid stability test (XRPD) under high temperature, high humidity and strong light; assay type: physicochemical
Description: According to the “Guiding Principles for Stability Testing of Raw Materials and Preparations” (Chinese Pharmacopoeia 2015 Edition Four General Rules 9001), the crystal form C of the compound of formula (I) was investigated for its stability under high temperature (60° C., open), high humidity (a. room temperature/relative humidity 92.5%, open; b. 40° C./75% relative humidity, open; c. 60° C./75% relative humidity, open) and the stability under strong light (5000 1×, airtight).
The crystal form C (15 mg) of the compound of formula (I) is weighed and placed on the bottom of the glass sample bottle to be spread into a thin layer. Samples placed under high-temperature and high-humidity conditions are sealed with aluminum foil, and small holes are formed on the aluminum foil to ensure that the samples can fully contact with the ambient air; and the sample placed under the strong illumination condition is sealed by a threaded bottle cap. Samples placed under different conditions were sampled and tested (XRPD) on the 5th day, 10th day, and 1 month. The test results were compared with the initial test results on day 0.

[8] = Competitive experiment of crystal form B and crystal form C (suspension in methyl tert-butyl ether); assay type: physicochemical
Description: Three groups of 30 mg crystal form B and 30 mg crystal form C compounds were respectively added to different 2.0 mL glass vials, and 0.6 mL methyl tert-butyl ether was added to obtain a suspension, and the suspension samples were placed in the magnetic heating stirrer was stirred at 20° C., 40° C. and 60° C. for 16 hours, the suspension was centrifuged to obtain a white solid, and the crystal form C of the compound of formula (I) was obtained by vacuum drying to constant weight.

[9] = Hygroscopicity research by dynamic vapor adsorption (DVS); assay type: physicochemical; details: 25° C. and 80% RH
Description: The vapor adsorption analysis (DVS) method of this application.
Instrument model: SMS DVS Advantage dynamic vapor adsorption instrument
Test conditions: Take a sample (10-15 mg) and place it in a DVS sample tray for testing.
The detailed DVS parameters are as follows:
Balance: dm/dt=0.01%/min (shortest: 10 min, longest: 180 min)
RH (%) test range: 0%-90%-0%
SMS DVS Advantage dynamic vapor adsorption instrument
Taking 10-15 mg of compound crystal form C of formula (I) and placing it in a DVS sample tray for testing.

BTK^C481S = BTK^C481S (Homo sapiens (Human), UniProt Q06187, C481S); assay: BTK enzyme activity test (33P-ATP filtration-binding); assay type: biochemical
Description: The specific experimental process of BTK enzyme activity test is as follows:
Buffer: 20 mM hydroxyethylpiperazine ethylsulfuric acid (Hepes) (pH 7.5), 10 mM magnesium chloride, 1 mM ethylene glycol bisaminoethyl ether tetraacetic acid (EGTA), 0.02% polyoxyethylene lauryl ether (Brij35), 0.02 mg/mL BSA, 0.1 mM sodium vanadate (Na3VO4), 2 mM dithiothreitol (DTT), 1% DMSO, 200 μM adenosine triphosphate (ATP).
1. Configuring the substrate in the newly prepared reaction buffer
2. Adding the required cofactors to the above substrate solution
3. Adding the kinase BTK^C481S to the above substrate solution and mixing well
4. Adding the compound dissolved in DMSO to the kinase reaction mixture through
Echo550 (Acoustic technology; nanoliter range), and incubating at room temperature for 20 minutes
5. Adding ^33P-ATP (with a specific activity of 10 μCi/μL) into the reaction mixture to initiate the reaction
6. Incubating at room temperature for 2 hours
7. Detection of radioactivity by filtration-binding method
8. Kinase activity data represent the percentage of remaining kinase activity in the test sample compared to the vehicle (dimethyl sulfoxide) reaction.

[10] = mouse, plasma, 0.21 mg/kg, CD-1 male mice
[11] = rat, plasma, SD rats, 0.51 mg/kg (Reference Example) / 0.49 mg/kg (Compound of Formula (I))
[12] = rat, plasma, SD rats, 1.9 mg/kg (Reference Example) / 1.8 mg/kg (Compound of Formula (I))
[13] = mouse, plasma, 3.1 mg/kg, CD-1 male mice

Sequence of BTK^C481S (Q06187 whole entry C481S): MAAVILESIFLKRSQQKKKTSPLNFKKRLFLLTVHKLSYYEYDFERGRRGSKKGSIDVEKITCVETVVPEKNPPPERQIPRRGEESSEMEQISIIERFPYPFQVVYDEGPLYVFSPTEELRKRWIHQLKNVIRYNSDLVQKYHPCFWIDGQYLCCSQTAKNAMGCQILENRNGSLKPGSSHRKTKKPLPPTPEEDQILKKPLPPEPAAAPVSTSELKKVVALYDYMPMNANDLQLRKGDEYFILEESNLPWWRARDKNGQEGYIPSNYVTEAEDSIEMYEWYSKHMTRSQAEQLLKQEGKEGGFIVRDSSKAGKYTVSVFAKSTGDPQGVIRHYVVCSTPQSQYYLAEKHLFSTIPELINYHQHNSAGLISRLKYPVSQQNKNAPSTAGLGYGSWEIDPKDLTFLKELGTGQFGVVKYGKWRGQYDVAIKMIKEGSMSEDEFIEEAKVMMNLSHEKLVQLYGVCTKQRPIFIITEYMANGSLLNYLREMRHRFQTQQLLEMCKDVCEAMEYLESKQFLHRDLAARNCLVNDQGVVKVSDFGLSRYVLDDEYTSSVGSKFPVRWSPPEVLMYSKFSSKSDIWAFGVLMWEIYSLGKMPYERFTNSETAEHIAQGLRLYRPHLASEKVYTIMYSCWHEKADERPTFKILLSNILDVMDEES

AUCu ([1]; 0.21 mg/kg, CD-1 male mice): 0.007 µM·h | AUC(0-inf) [1, 10]: 3.49 µM·h | C0 [1, 10]: 1040 nM | Vd [1, 10]: 0.7 L/kg | clearance [1, 10]: 2.01 mL/min/kg | half-life [1, 10]: 4.34 h | AUCu ([3]; SD rats): 0.0019 µM·h | AUC(0-inf) [3, 11]: 1.92 µM·h | C0 [3, 11]: 800 nM | Vd [3, 11]: 1.57 L/kg | clearance [3, 11]: 9.08 mL/min/kg | half-life [3, 11]: 2.02 h | AUCu ([4]; SD rats): 0.005 µM·h | AUC(0-inf) [4, 12]: 5.03 µM·h | Cmax [4, 12]: 607 nM | half-life [4, 12]: 2.41 h | Unbound PPB ([5]; Table 12): 0.1% | Unbound PPB ([5]; Table 13): 0.1% | Unbound PPB (Unbound PPB (Mouse); Table 10): 0.2% | Unbound PPB (Unbound PPB (Mouse); Table 11): 0.2% | AUCu ([6]; 3.1 mg/kg, CD-1 male mice): 0.0882 µM·h | AUC(0-inf) [6, 13]: 44.1 µM·h | Cmax [6, 13]: 3840 nM | half-life [6, 13]: 3.75 h
SMILES: O=C(c1ccc(Oc2ccccc2)cc1Cl)c1c[nH]c2ncnc(N[C@@H]3CC[C@@H](CO)OC3)c12 [Reference Example]
T/C ([2]; 45 mg/kg PO QD × 21): 42.45% | TGI ([2]; 45 mg/kg PO QD × 21): 74.47% | Tumor volume (Day 0) ([2]; 45 mg/kg PO QD × 21): 183.86 ± 9.48 mm^3 | Tumor volume (Day 20) ([2]; 45 mg/kg PO QD × 21): 330.27 ± 19.35 mm^3

Crystal Form (XRPD) ([7]; 0 day, initial): Form C | Crystal Form (XRPD) ([7]; High humidity (40° C./75% relative humidity, open), 1 month): Form C | Crystal Form (XRPD) ([7]; High humidity (60° C./75% relative humidity, open), 1 month): Form C | Crystal Form (XRPD) ([7]; High humidity (room temperature/relative humidity 92.5%, open), 5th day): Form C | Crystal Form (XRPD) ([7]; High humidity (room temperature/relative humidity 92.5%, open), 10th day): Form C | Crystal Form (XRPD) ([7]; High temperature (60° C., open), 5th day): Form C | Crystal Form (XRPD) ([7]; High temperature (60° C., open), 10th day): Form C | Crystal Form (XRPD) ([7]; Strong light (5000 lx, airtight), 10th day): Form C | Hygroscopicity classification [9]: slightly hygroscopic (2% > ΔW % ≥ 0.2%) | ΔW (hygroscopic weight gain) ([9]; DVS): 0.262%
SMILES: CO[C@@H]1C[C@@H](CO)OC[C@@H]1Nc1ncnc2[nH]cc(C(=O)c3ccc(Oc4ccccc4)cc3Cl)c12 [Form C]
Solid stability, conclusion ([7]; high temperature, high humidity and strong light conditions): Conclusion: The crystal form C of the compound of formula (I) has good stability under high temperature, high humidity and strong light conditions. | Relative stability compared with Form B, conclusion [8]: Conclusion: Compared with Form B, Form C is more stable. | T/C ([2]; 15 mg/kg PO QD × 21): 65.50% | TGI ([2]; 15 mg/kg PO QD × 21): 49.61% | Tumor volume (Day 0) ([2]; 15 mg/kg PO QD × 21): 182.02 ± 9.76 mm^3 | Tumor volume (Day 20) ([2]; 15 mg/kg PO QD × 21): 471.07 ± 16.55 mm^3 | T/C ([2]; 30 mg/kg PO QD × 21): 45.05% | TGI ([2]; 30 mg/kg PO QD × 21): 71.75% | Tumor volume (Day 0) ([2]; 30 mg/kg PO QD × 21): 180.91 ± 9.67 mm^3 | Tumor volume (Day 20) ([2]; 30 mg/kg PO QD × 21): 342.95 ± 20.06 mm^3 | T/C ([2]; 45 mg/kg PO QD × 21): 29.25% | TGI ([2]; 45 mg/kg PO QD × 21): 92.82% | Tumor volume (Day 0) ([2]; 45 mg/kg PO QD × 21): 180.19 ± 10.07 mm^3 | Tumor volume (Day 20) ([2]; 45 mg/kg PO QD × 21): 221.38 ± 37.11 mm^3 | Tumor inhibitory effect versus reference compound, conclusion ([2]; at the same dose): obviously better than that of reference compound | Tumor growth inhibition, conclusion ([2]; inhibitory effect positively correlated with dose): significantly inhibit tumor growth

AUCu ([1]; 0.21 mg/kg, CD-1 male mice): 0.0124 µM·h | AUCu ([3]; SD rats): 0.0034 µM·h | AUCu ([4]; SD rats): 0.0078 µM·h | Unbound PPB ([5]; Table 12): 0.2% | Unbound PPB ([5]; Table 13): 0.2% | Unbound PPB (Unbound PPB (Mouse); Table 10): 0.4% | Unbound PPB (Unbound PPB (Mouse); Table 11): 0.4% | Inhibitory effect on BTK C481S mutation, conclusion (BTK^C481S): strong inhibitory effect | AUCu ([6]; 3.1 mg/kg, CD-1 male mice): 0.133 µM·h
SMILES: CO[C@@H]1C[C@@H](CO)OC[C@@H]1Nc1ncnc2[nH]cc(C(=O)c3ccc(Oc4ccccc4)cc3Cl)c12 [Compound of formula (I)]
Free drug concentration in mouse plasma, conclusion [1]: higher than that of the reference compound | Free drug concentration in rat plasma, conclusion [3]: higher than that of the reference compound | Free drug concentration in rat plasma, conclusion [4]: higher than that of the reference compound | Free drug concentration in mouse plasma, conclusion [6]: higher than that of the reference compound
